Tested on: R77C mutated α-sarcoglycan
Assay: Immunofluorescence marking of α-sarcoglycan at the membrane of non-permeabilized quadri-transfected HER 911 cells
Type: cell-based, human
Details: 24 h treatment; for membrane localization of the R77C-mutated α-sarcoglycan protein: HER 911 cells quadri-transfected with α(R77C)-, β-, γ-, δ-sarcoglycan; for membrane addressing of the sarcoglycan complex: quadritransfected HER 911 cells
Method: HER-911 (“Human Embryonic Retinoblast”) cells have been inoculated in vials and cultivated up to a 80% confluence in Dulbecco's modified Eagle's+GlutaMAX (Gibco, Invitrogen) medium containing 10% of fetal calf serum, 0.01 mg/ml of gentamicin, and 1% MEM Non Essential Amino Acids (Gibco, Invitrogen). The cells have been maintained in a humidified atmosphere with 5% C02, at 37° C.
The HER-91 cells have been transfected by means of 12 μl of Fugene.6 Transfection Reagent (Roche) for 2 μg of plasmid (0.5 μg of each of the 4 sarcoglycan (SG) constructions for HER-911 cells). The plasmids expressing the SG, pcDNA3.V5-his_hα-SG, pcDNA3.V5-his_hβ-SG, pcDNA3.V5-his_hγ-SG, and pcDNA3.V5-his_hδ1-SG (transcriptional type-1 variant), are plasmids where the expression of the coding sequence of the respective sarcoglycans is under control of the CMV promoter.
After 48 h, the cells have been treated for 24 h with 5 μM of 5-aza-2′-deoxycytidine or 1 μM of SAHA (Suberoylanilide hydroxamnic acid).
The HER-911 cells have been fixed by incubation with 3.7% of formaldehyde for 15 min at room temperature. If necessary, a permeabilization has been performed by using 0.2% Triton X-100 for 20 min. After having been saturated with 20% fetal calf serum for 30 min, the cells have been incubated with primary antibodies at adapted dilutions (in PBS) for 1 h at room temperature. A monoclonal murine antibody specific for α-SG (NCL-A-SARC) is available from Novocastra. The cells have been washed 3 times with PBS and then incubated for 1 h with secondary antibodies diluted by 1/1,000 in PBS. Finally, the cells have been washed in PBS, mounted by using a Vectashield Mounting Medium with DAPI (Vector, H-1200), and then examined with a confocal immunofluorescence microscope (Leica).
HER 911 human cells have been quadri-transfected with plasmids coding β-, γ-, and δ-sarcoglycans and a plasmid coding either non-mutated α-sarcoglycan (FIG. 1A and FIG. 2A), or R77C mutated α-sarcoglycan (FIGS. 1B and 1C; FIGS. 2B and 2C).
An immunomarking has then been performed on the non-permeabilized cells by using an antibody directed against the extracellular portion of the α-sarcoglycan, which enables to visualize the protein only at the cellular membrane level and thus to compare the addressing of the mutated protein with that of the normal protein.

Question: Which “membrane localization of the R77C-mutated α-sarcoglycan protein” value (5 μM, FIG. 1C) does the source give for `Nc1ncn([C@@H]2O[C@H](CO)[C@@H](O)[C@H]2O)c(=O)n1` [5-azacytidine] here?
Answer: restores the membrane localization of the R77C-mutated protein

Question: And the “membrane addressing of the sarcoglycan complex” value (5 μM)?
Answer: enabled to reconstitute the complex at the membrane

Question: What does the source list for `O=C(CCCCCCC(=O)Nc1ccccc1)NO` [SAHA, suberoylanilide hydroxamic acid]?
Answer: membrane localization of the R77C-mutated α-sarcoglycan protein (1 μM, FIG. 2C): restores the membrane localization of the R77C-mutated protein; membrane addressing of the sarcoglycan complex (1 μM): enabled to reconstitute the complex at the membrane

Reference: US9526742B2, “Use of epigenome-modifying compounds for the treatment of genetic muscular diseases linked to a protein-conformational disorder” (GENETHON, priority 2012, dated 2016)
